Assay [1] has as its target T1, Lp-PLA2 from plasma (Homo sapiens, UniProt Q13093).
T1 construct: from tissue; host or cells: pooled human plasma
T1 sequence (Q13093 22-441): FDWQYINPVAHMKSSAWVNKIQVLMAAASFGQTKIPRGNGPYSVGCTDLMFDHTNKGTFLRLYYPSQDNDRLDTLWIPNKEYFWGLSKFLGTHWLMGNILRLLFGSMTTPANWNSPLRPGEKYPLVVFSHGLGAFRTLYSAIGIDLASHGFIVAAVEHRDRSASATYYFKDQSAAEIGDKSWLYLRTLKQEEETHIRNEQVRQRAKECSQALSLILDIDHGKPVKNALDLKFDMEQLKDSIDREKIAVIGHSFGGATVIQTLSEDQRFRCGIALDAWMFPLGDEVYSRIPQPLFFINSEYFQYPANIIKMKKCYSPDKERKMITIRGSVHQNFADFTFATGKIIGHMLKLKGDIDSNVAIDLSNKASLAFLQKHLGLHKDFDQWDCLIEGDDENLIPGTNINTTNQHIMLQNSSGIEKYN
The assay can be described thus: Lp-PLA2 human plasma assay (Thio-PAF assay). As to conditions: pooled human plasma; read-out: pIC50 values in the thio-PAF assay (converted). The assay is classed as biochemical. From the text: (3) Lipoprotein-Associated Phospholipase A2 (Lp-PLA2) Human Plasma Assay (Also Referred to as “Thio-PAF Assay”)
The human plasma assay utilizes a thioester analog of PAF (phosphatidylcholine), where hydrolysis yields to the formation of a phospholipid containing a free thiol group. The amount of thiol is quantitated continuously by reacting with CPM (7-diethylamino-3-(4′-maleimidylphenyl)-4-methylcoumarin), a maleimide which increases in fluoresence after Michael addition of thiols. This assay may detect the activity of Lp-PLA2 from plasma, as determined by specific inhibition by Lp-PLA2 inhibitors.
The thio-PAF assay was run as a quenched 15 μL assay. Compounds source plate was prepared by making 1:3 (by volume) serial dilution of the compounds into pure DMSO on 384-well microplate. 0.01 μL of compounds on compound source plate were transferred to 384 well Greiner 784076 (black) low-volume plates by ECHO liquid dispenser. 8 μL pooled human plasma, which was previously aliquoted and frozen, was added. Plates were centrifuged for 10 sec at 500 rpm. After 30 minutes preincubation, 2 μL of substrate (2.5 mM thio-PAF, 3.2 mM NEM (N-ethylmaleimide) [made fresh daily in DMSO], and 32 μM CPM [from a DMSO stock] in assay buffer of 50 mM HEPES, pH7.4, 150 mM NaCl, 1 mM CHAPS was added to 384 well Greiner 784076 (black) low-volume plates by BRAVO liquid handling station. Plates were centrifuged for 10 sec at 500 rpm. Plate was covered to protect from light and incubated for 2 min at room temperature. Reaction was quenched with 5 μL of 5% aqueous trifluoroacetic acid (TFA). Plates were covered to protect from light and incubated for 40 min at room temperature. Plates were read at ex: 380/em: 485 using-Envision microplate reader. PIC50 data, curve and QC analysis was conducted by using XLFit module in Excel.

The target of assay [2] is T2, recombinant human Lp-PLA2 (Homo sapiens, UniProt Q13093).
T2 sequence (Q13093 22-441): T1 sequence (Q13093 22-441)
The assay can be described thus: Recombinant human Lp-PLA2 assay (rhLp-PLA2, PED6 assay). As to conditions: upper limit for pIC50 in this assay is 9.3. The assay is classed as biochemical. An excerpt: (1) Recombinant Human Lp-PLA2 Assay (rhLp-PLA2) (Also Referred to as “PED6” Assay)
N-((6-(2,4-dinitrophenyl)amino)-hexanoyl)-2-(4,4-difluoro-5,7-dimethyl-4-bora-3a,4a-diaza-s-indacene-3-pentanoyl)-1-hexadecanoyl-sn-glycero-3-phosphoethanolamine, triethylammonium salt (PED6) is a commercially available fluorescently-labelled phospholipid, which is commercially available from Molecular Probes. There is a quenching para-nitro phenyl (PNP) group in the sn3 position and a Bodipy fluorescein (FL) group in the sn2 position. Upon cleavage with Lp-PLA2, the Bodipy F1 group is liberated and then may result in an increase in fluorescence. Inhibitors of Lp-PLA2 therefore prevent this cleavage and no fluorescent increase is observed.
The PED6 assay was run as an […] 10 μL assay. Compounds source plate was prepared by making 1:3 (by volume) serial dilution of the compounds into pure DMSO on 384-well microplate. Then, 0.01 μL of compounds on compound source plate were transferred into 384 well Greiner 784076 (black) plates by ECHO liquid dispenser. 5 μL of recombinant human Lp-PLA2 enzyme (2 nM rhLp-PLA2 in assay buffer of 50 mM HEPES, pH7.4, 150 mM NaCl, 1 mM CHAPS) was added to each well of the plate with compounds. Plates were centrifuged for 10 sec at 500 rpm. After 30 minutes preincubation, […] substrate (4 μM PED6 [from 5 mM DMSO stock] in assay buffer of 50 mM HEPES, pH7.4, 150 mM NaCl, 1 mM CHAPS) was added to 384 well Greiner 784076 (black) plates. Plates were centrifuged for 10 sec at 500 rpm. Plate was covered to protect from light and incubated for 20 min at room temperature. Plates were read for fluorescence intensity at ex: 480/em: 540 using ViewLux microplate imager. PIC50 data, curve and QC analysis was conducted by using XL fit module in Excel.

Assay [3] relates to proinflammatory (M1) and anti-inflammatory (M2) markers. Kind of assay: Ex vivo analysis of M1 and M2 markers in macrophages of EAE animals (realtime PCR). The arrangement: species or system rats. As to conditions: EAE by MBP immunization, splenic macrophages day 13 and CNS infiltrating macrophages. As to the method: A further study was carried out to study the impact of Lp-PLA2 inhibitors on modulating M1/M2 imbalance. In this study, rats were induced to develop experimental autoimmune encephalomyelitis (EAE) by immunization with myelin basic protein (MBP) antigen and treated with a known Lp-PLA2 inhibitor: 5-((9-Methoxy-4-oxo-6,7-dihydro-4H-pyrimido[6,1-a]isoquinolin-2-yl)oxy)-2-(3-(trifluoromethyl)phenoxy)benzonitrile (See PCT application no. PCT/CN2011/001597) For preventive treatment, compound administration started at day 0 whereas it started at 7 day in therapeutic treatment. Rats were subsequently monitored for symptoms of EAE. Rats were immunized with MBP to develop EAE and symptoms were monitored daily. Plasma Lp-PLA2 activity and LysoPC concentration were determined at different time points through the course of EAE.
Ex vivo analysis of proinflammatory (M1) and anti-inflammatory (M2) markers in control and compound treated EAE […]. Splenic macrophages were harvested at day 13 post MBP-immunization and assayed for expression of a variety of markers by realtime PCR. CNS infiltrating cells were harvested and macrophages were analyzed for expression of M1 and M2 markers by realtime PCR.

Structures can show the parent of a compound that is named as a salt. Bounds are passed on as bounds.

On to `Cc1cn(Cc2cnn(C)c2)c(=O)nc1OCc1ccc(Oc2ccc(F)c(F)c2)c(C#N)c1` [Example 71, 2-(3,4-difluorophenoxy)-5-(((5-methyl-1-((1-methyl-1H-pyrazol-4-yl)methyl)-2-oxo-1,2-dihydropyrimidin-4-yl)oxy)methyl)benzonitrile], for which the IC50 in assay [1] was not above 100 nM; in assay [2] it was not above 1 nM.
The corresponding values for `Cc1cn(Cc2cnn(C)c2)c(=O)nc1OCCc1ccc(Oc2ccc(Cl)c(C(F)(F)F)c2)cc1` [Example 66, 4-(4-(4-chloro-3-(trifluoromethyl)phenoxy)phenethoxy)-5-methyl-1-((1-methyl-1H-pyrazol-4-yl)methyl)pyrimidin-2 (1H)-one] are not above 100 nM and not above 1 nM.
The like results for `Cc1cn(Cc2cnn(C)c2)c(=O)nc1OCc1ccc(Oc2cccc(C(F)(F)F)c2)c(C#N)c1` [Example 69, 5-(((5-methyl-1-((1-methyl-1H-pyrazol-4-yl)methyl)-2-oxo-1,2-dihydropyrimidin-4-yl)oxy)methyl)-2-(3-(trifluoromethyl)phenoxy)benzonitrile] were, in that order, not above 100 nM and not above 1 nM.
The corresponding values for `Cn1cc(Cn2ccc(OCc3ccc(Oc4ccc(Cl)c(C(F)(F)F)c4)cc3)nc2=O)cn1` [Example 8, 4-{[(4-{[4-Chloro-3-(trifluoromethyl)phenyl]oxy}phenyl)methyl]oxy}-1-[(1-methyl-1H-pyrazol-4-yl)methyl]-2(1H)-pyrimidinone] are not above 100 nM and not above 1 nM.
Regarding `COc1ncc(Cn2cc(C)c(OCCc3ccc(Oc4ccc(F)c(F)c4)nc3)nc2=O)cn1` [Example 70, 4-(2-(6-(3,4-difluorophenoxy)pyridin-3-yl)ethoxy)-1-((2-methoxypyrimidin-5-yl)methyl)-5-methylpyrimidin-2(1H)-one], the figures for the IC50 in assay [1] and in assay [2] were not above 1000 nM and more than 10 nM, respectively.
Regarding `Cn1cc(Cn2cc(F)c(OCCc3ccc(Oc4ccc(F)c(F)c4)c(F)c3)nc2=O)cn1` [Example 59, 4-(4-(3,4-difluorophenoxy)-3-fluorophenethoxy)-5-fluoro-1-((1-methyl-1H-pyrazol-4-yl)methyl)pyrimidin-2(1H)-one, trifluoroacetic acid salt], the IC50 in assay [1] was not above 100 nM; in assay [2] it was not above 1 nM.
With `COc1ncc(Cn2cc(Cl)c(OCCc3cnc(Oc4ccc(Cl)c(C(F)(F)F)c4)c(F)c3)nc2=O)cn1` [Example 32, 5-chloro-4-(2-(6-(4-chloro-3-(trifluoromethyl)phenoxy)-5-fluoropyridin-3-yl)ethoxy)-1-((2-methoxypyrimidin-5-yl)methyl)pyrimidin-2(1H)-one], the IC50 in assay [1] was not above 100 nM; in assay [2], not above 1 nM.
`COc1ccc2c(c1)CCn1c-2cc(Oc2ccc(Oc3cccc(C(F)(F)F)c3)c(C#N)c2)nc1=O` [5-((9-Methoxy-4-oxo-6,7-dihydro-4H-pyrimido[6,1-a]isoquinolin-2-yl)oxy)-2-(3-(trifluoromethyl)phenoxy)benzonitrile]: in assay [3], the M1 markers result was “decrease” and the M2 markers result is “increase”.
For `O=c1nc(OCCc2ccc(Oc3ccc(Cl)c(C(F)(F)F)c3)cc2)ccn1Cc1cccnc1` [Example 10, 4-{[2-(4-{[4-Chloro-3-(trifluoromethyl)phenyl]oxy}phenyl)ethyl]oxy}-1-(3-pyridinylmethyl)-2(1H)-pyrimidinone], the results for the IC50 in assay [1] and in assay [2] were not above 100 nM and not above 1 nM, respectively.
`N#Cc1cc(COc2ccn(Cc3cccnc3)c(=O)n2)ccc1Oc1ccc(Cl)c(C(F)(F)F)c1` [Example 4, 2-(4-Chloro-3-(trifluoromethyl)phenoxy)-5-(((2-oxo-1-(pyridin-3-ylmethyl)-1,2-dihydropyrimidin-4-yl)oxy)methyl)benzonitrile]: the IC50 in assay [1] was not above 100 nM; in assay [2] it was not above 1 nM.
Turning to `Cc1cn(Cc2cnn(C)c2)c(=O)nc1OCc1ccc(Oc2ccc(F)c(F)c2)c(F)c1` [Example 72, 4-((4-(3,4-difluorophenoxy)-3-fluorobenzyl)oxy)-5-methyl-1-((1-methyl-1H-pyrazol-4-yl)methyl)pyrimidin-2(1H)-one], the IC50 was not above 100 nM in assay [1] and not above 1 nM in assay [2].
The corresponding values for `COc1ncc(Cn2cc(Cl)c(OCCc3ccc(Cc4ccc(Cl)c(C(F)(F)F)c4)cc3)nc2=O)cn1` [Example 45, 5-chloro-4-(4-(4-chloro-3-(trifluoromethyl)benzyl)phenethoxy)-1-((2-methoxypyrimidin-5-yl)methyl)pyrimidin-2(1H)-one] are not above 100 nM and not above 1 nM.
Turning to `Cn1cc(Cn2ccc(OCc3cnc(Oc4ccc(Cl)c(C(F)(F)F)c4)c(F)c3)nc2=O)cn1` [Example 17, 4-{[(6-{[4-Chloro-3-(trifluoromethyl)phenyl]oxy}-5-fluoro-3-pyridinyl)methyl]oxy}-1-[(1-methyl-1H-pyrazol-4-yl)methyl]-2 (1H)-pyrimidinone], the IC50 in assay [1] was not above 100 nM; in assay [2], not above 1 nM.
The like results for `O=c1nc(OCCc2ccc(Oc3ccc(Cl)c(C(F)(F)F)c3)cc2)ccn1Cc1ccncc1` [Example 9, 4-{[2-(4-{[4-Chloro-3-(trifluoromethyl)phenyl]oxy}phenyl)ethyl]oxy}-1-(4-pyridinylmethyl)-2(1H)-pyrimidinone] were, in that order, not above 100 nM and not above 1 nM.
Turning to `Cn1cc(Cn2ccc(OCCc3cnc(Oc4ccc(Cl)c(C(F)(F)F)c4)c(F)c3)nc2=O)cn1` [Example 18, 4-{[2-(6-{[4-Chloro-3-(trifluoromethyl)phenyl]oxy}-5-fluoro-3-pyridinyl)ethyl]oxy}-1-[(1-methyl-1H-pyrazol-4-yl)methyl]-2(1H)-pyrimidinone], the IC50 in assay [1] is not above 100 nM; in assay [2], not above 1 nM.
The like results for `Cn1cc(Cn2ccc(OCCc3ccc(Oc4ccc(Cl)c(C(F)(F)F)c4)cc3)nc2=O)cn1` [Example 12, 4-{[2-(4-{[4-Chloro-3-(trifluoromethyl)phenyl]oxy}phenyl)ethyl]oxy}-1-[(1-methyl-1H-pyrazol-4-yl)methyl]-2(1H)-pyrimidinone] were, in that order, not above 100 nM and not above 1 nM.

For the origin of these results see US8859573B2, “Pyrimidinone and pyridinone compounds for use in the treatment of diseases or conditions mediated by Lp-PLA2” (Glaxo Group Limited, priority 2010, dated 2014).
